Test results reported in patent publication US20260297129A1, “PEPTIDES AS SELECTIVE IL-23 RECEPTOR INHIBITORS” (SANOFI, priority 2023, published 2026).
Values after ≈ are worked out from the molar mass of the structure shown. Read-outs that look alike come from different tables or passages of the source. Numbered stars: 1 amine (or outer) side, 2 acyl side, 3 side chain; on linkers, the order of the positions; unused ones are H or OH. Bridge positions count the residues as written; N and C are the ends. Square brackets hold non-standard residues; d marks the D form. Peptide text beside a SMILES is read from it. * marks the point of attachment. Lys(Me,(CH2)4NMe(CH2)4CO) = CN(CCCCC(=O)[*:3])CCCCN(C)CCCC[C@H](N[*:1])C(=O)[*:2]; Trp(7-Me) = Cc1cccc2c(C[C@H](N)C(=O)O)c[nH]c12; Trp(1-Me) = Cn1cc(C[C@H](N)C(=O)O)c2ccccc21; 2Nal = N[C@@H](Cc1ccc2ccccc2c1)C(=O)O; 3Pal = N[C@@H](Cc1cccnc1)C(=O)O; Aun = NCCCCCCCCCCC(=O)O; Thp = NC1(C(=O)O)CCOCC1; Me2NCH2CH2 = CN(C)CC*; Aib = CC(C)(N)C(=O)O; Sar = CNCC(=O)O

Columns and labels:
[1] = Protease stability in simulated gastric fluids (FaSSGF) (Table 7); type: in vitro ADME; details: fassgf with pepsin, 60 min, 37° C., read-out: Remaining percentage of peptide compound, FaSSGF 60 (min)
How it was run: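 Peptides at 1 μM final were incubated at 37 °C in simulated gastric fluid with pepsin (320 mg per 100 mL SGF concentrate). Samples were quenched with ethanol (0.1% HCOOH) at 0, 60, 120 and 240 min and analysed by LC-MS/MS. Percent remaining is the peak area relative to T0 (100%).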

[2] = Chemical stability (relative purity loss) of peptide compounds in buffer formulations (Table 6); type: physicochemical; details: 2° C. and 37° C.
How it was run: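 Compounds at 0.5 mg/mL in 50 mM HCl pH 1.2, 50 mM phosphate pH 6.5 or pH 7.4, each with acetonitrile (3:1), stored 24 hours at 2° C and 37° C. Purity measured by UHPLC-UV before and after. Stability expressed as relative purity loss.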

[3] = test system: IL-23 induced STAT3 signaling (IL-23 receptor) in HEK-Blue IL-23 cells; test: Inhibition of IL-23 induced STAT3 signaling in HEK-Blue IL-23 cells, SEAP reporter (Table 9); type: cell-based; details: human IL23 0.25 ng/ml, overnight, read-out: Inhibition of IL-23 induced pSTAT3 (IC50 nM)
How it was run: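 STAT3-driven SEAP output measured at OD 620–655 nm after 45 min QUANTI-Blue development of supernatant, with dose-response fits. Peptides were given 60 min ahead of 0.25 ng/ml (final) human IL-23, followed by overnight culture at 37 °C; 10,000 HEK-Blue IL-23 cells per well.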

[4] = Protease stability in simulated intestinal fluids (FaSSIF) (Table 7); type: in vitro ADME; details: fassif with pancreatin, 37° C.; for remaining at 1 h, 1 µM: 60 min, read-out: Remaining percentage of peptide compound, FaSSIF 60 (min); for remaining at 2 h, 1 µM: 120 min, read-out: Remaining percentage of peptide compound, FaSSIF 120 (min); for remaining at 4 h, 1 µM: 240 min, read-out: Remaining percentage of peptide compound, FaSSIF 240 (min)
How it was run: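 Percent parent remaining was derived from LC-MS/MS peak areas normalised to time 0, set at 100%. Sampling at 0, 60, 120 and 240 min, quenched in ethanol with 0.1% HCOOH. Final peptide 1 μM, 37° C, SIF containing pancreatin.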

[5] = Solubility of peptide compounds in buffer formulations (Table 5); type: physicochemical; details: target 1 mg/ml
How it was run: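 Solubility was quantified by UHPLC-UV, comparing 1:10-diluted filtrate peak areas with a DMSO reference standard and correcting for extinction coefficients. Samples were prepared from dried DMSO stock at 1 mg/mL nominal in pH 1.2 HCl, pH 6.5 or pH 7.4 phosphate (50 mM), and agitated 2 h.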

[6] = 50 mM phosphate buffer pH 6.5 + acetonitrile (3:1), read-out: Chemical stability (relative purity loss), Buffer pH 6.5
[7] = 50 mM phosphate buffer pH 7.4 + acetonitrile (3:1), read-out: Chemical stability (relative purity loss), Buffer pH 7.4
[8] = 50 mm hcl + acetonitrile, Buffer pH 1.1 (head; method: 50 mM HCl pH 1.2 + acetonitrile 3:1), read-out: Chemical stability (relative purity loss), Buffer pH 1.1
[9] = Buffer pH 1.1 (head; method: 50 mM HCl pH 1.2), 2 h agitation, read-out: Solubility, Buffer pH 1.1
[10] = aqueous buffer, 50 mM phosphate buffer pH 6.5, 2 h agitation, read-out: Solubility, Buffer pH 6.5
[11] = aqueous buffer, 50 mM phosphate buffer pH 7.4, 2 h agitation, read-out: Solubility, Buffer pH 7.4

Row | SMILES | remaining at 1 h, 1 µM [1] [%] | degraded at 24 h [2, 6] [%] | degraded at 24 h [2, 7] [%] | degraded at 24 h [2, 8] [%] | IC50 [3] [nM] | remaining at 1 h, 1 µM [4] [%] | remaining at 2 h, 1 µM [4] [%] | remaining at 4 h, 1 µM [4] [%] | solubility at 2 h [5, 9] [µg/mL] | solubility at 2 h [5, 10] [µg/mL] | solubility at 2 h [5, 11] [µg/mL]
1 | Cc1cccc2c(C[C@@H]3NC(=O)CCCCCCCCCCNC(=O)CC[C@@H](C(=O)N[C@@H](CC(N)=O)C(=O)N[C@@H](Cc4cccnc4)C(=O)N(C)CC(N)=O)NC(=O)C(C)(C)NC(=O)[C@H](Cc4ccc5ccccc5c4)NC(=O)[C@H](Cc4ccc(OCCN(C)C)cc4)NC(=O)C(C)(C)NC(=O)[C@H](CCC(N)=O)NC3=O)c[nH]c12 [compound 35] ([Aun][Trp(7-Me)]Q[Aib]Y(Me2NCH2CH2)[2Nal][Aib]EN[3Pal][Sar]-NH2; lactam N-8) | 86 | 0 | 0 | 7.4 | 0.6 | 89 | 88 | 87 | ≥ 870 | 80 (≈ 50.8 µM) | 40 (≈ 25.4 µM)
2 | CC(=O)NCCCC[C@@H]1NC(=O)[C@H](Cc2c[nH]c3c(C)cccc23)NC(=O)CCCCCCCCCCNC(=O)CC[C@@H](C(=O)N[C@@H](CC(N)=O)C(=O)N[C@@H](Cc2cccnc2)C(=O)N(C)CC(N)=O)NC(=O)C(C)(C)NC(=O)[C@H](Cc2ccc3ccccc3c2)NC(=O)[C@H](Cc2ccc(OCCN(C)C)cc2)NC(=O)C2(CCOCC2)NC1=O [compound 16] ([Aun][Trp(7-Me)]K(Ac)[Thp]Y(Me2NCH2CH2)[2Nal][Aib]EN[3Pal][Sar]-NH2; lactam N-8) | 88 | 0 | 0.6 | 3.8 | 0.37 | 84 | 85 | 84 | ≥ 950 | 760 (≈ 458 µM) | 260 (≈ 157 µM)
3 | CC(=O)NCCCC[C@@H]1NC(=O)[C@H](Cc2c[nH]c3c(C)cccc23)NC(=O)CCCCN(C)CCCCN(C)CCCC[C@@H](C(=O)NCC(=O)N[C@@H](Cc2cccnc2)C(=O)N(C)CC(N)=O)NC(=O)C(C)(C)NC(=O)[C@H](Cc2ccc3ccccc3c2)NC(=O)[C@H](Cc2ccc(OCCN(C)C)cc2)NC(=O)C2(CCOCC2)NC1=O [compound 29] ([Trp(7-Me)]K(Ac)[Thp]Y(Me2NCH2CH2)[2Nal][Aib][Lys(Me,(CH2)4NMe(CH2)4CO)]G[3Pal][Sar]-NH2; lactam N-7) | 99 | 0 | 0 | 3 | 2.75 | 96 | 95 | 90 | ≥ 970 | 850 (≈ 526 µM) | 830 (≈ 513 µM)
4 | CN(C)CCOc1ccc(C[C@@H]2NC(=O)C3(CCOCC3)NC(=O)[C@H](CCC(N)=O)NC(=O)[C@H](Cc3cn(C)c4ccccc34)NC(=O)CCCCN(C)CCCCN(C)CCCC[C@@H](C(=O)N[C@@H](CO)C(=O)N[C@@H](Cc3cccnc3)C(=O)N(C)CC(N)=O)NC(=O)C(C)(C)NC(=O)[C@H](Cc3ccc4ccccc4c3)NC2=O)cc1 [compound 40] ([Trp(1-Me)]Q[Thp]Y(Me2NCH2CH2)[2Nal][Aib][Lys(Me,(CH2)4NMe(CH2)4CO)]S[3Pal][Sar]-NH2; lactam N-7) | 100 | 0 | 0 | 5.7 | 2.26 | 97 | 93 | 92 | ≥ 980 | ≥ 1070 | ≥ 1060
5 | CC(=O)NCCCC[C@@H]1NC(=O)[C@H](Cc2c[nH]c3c(C)cccc23)NC(=O)CCCCCCCCCCNC(=O)CC[C@@H](C(=O)N[C@@H](CC(N)=O)C(=O)N[C@@H](Cc2cccnc2)C(=O)N(C)CC(N)=O)NC(=O)C2(CCOCC2)NC(=O)[C@H](Cc2ccc3ccccc3c2)NC(=O)[C@H](Cc2ccc(OCCN(C)C)cc2)NC(=O)C2(CCOCC2)NC1=O [compound 50] ([Aun][Trp(7-Me)]K(Ac)[Thp]Y(Me2NCH2CH2)[2Nal][Thp]EN[3Pal][Sar]-NH2; lactam N-8) | 84 | 0 | 0.1 | 3.4 | 0.19 | 91 | 92 | 91 | ≥ 1180 | 340 (≈ 200 µM) | 130 (≈ 76.4 µM)
6 | CN(C)CCOc1ccc(C[C@@H]2NC(=O)C3(CCOCC3)NC(=O)[C@H](CCC(N)=O)NC(=O)[C@H](Cc3c[nH]c4ccccc34)NC(=O)CCCCN(C)CCCCN(C)CCCC[C@@H](C(=O)N[C@@H](CO)C(=O)N[C@@H](Cc3cccnc3)C(=O)N(C)CC(N)=O)NC(=O)C(C)(C)NC(=O)[C@H](Cc3ccc4ccccc4c3)NC2=O)cc1 [compound 41] (WQ[Thp]Y(Me2NCH2CH2)[2Nal][Aib][Lys(Me,(CH2)4NMe(CH2)4CO)]S[3Pal][Sar]-NH2; lactam N-7) | 95 | 0 | 0.4 | 5.8 | 4 | 93 | 93 | 81 | ≥ 1020 | ≥ 960 | ≥ 1020
7 | CC(=O)NCCCC[C@@H]1NC(=O)[C@H](Cc2c[nH]c3c(C)cccc23)NC(=O)CCCCN(C)CCCCN(C)CCCC[C@@H](C(=O)N[C@@H](CC(N)=O)C(=O)N[C@@H](Cc2cccnc2)C(=O)N(C)CC(N)=O)NC(=O)C(C)(C)NC(=O)[C@H](Cc2ccc3ccccc3c2)NC(=O)[C@H](Cc2ccc(OCCN(C)C)cc2)NC(=O)C2(CCOCC2)NC1=O [compound 32] ([Trp(7-Me)]K(Ac)[Thp]Y(Me2NCH2CH2)[2Nal][Aib][Lys(Me,(CH2)4NMe(CH2)4CO)]N[3Pal][Sar]-NH2; lactam N-7) | 97 | 0 | 0.5 | 3.6 | 0.53 | 96 | 93 | 84 | ≥ 950 | ≥ 1080 | ≥ 1120
